Data reported in paper PMC9415896, “Total Synthesis of the Antimycobacterial Natural Product Chlorflavonin and Analogs via a Late-Stage Ruthenium(II)-Catalyzed ortho-C(sp^2)-H-Hydroxylation” (Pharmaceuticals, 2022).
≈ marks a conversion by molar mass, not a printed value.

Tests used:
[1] = Chemical stability in phosphate buffer (HPLC-UV); type: physicochemical
Method: Stability testing was performed in phosphate buffer pH 2.0 and 7.4 (prepared according to Ph. Eur. 10) at 20 °C over a period of 48 h. Therefore, 0.4 mg of substance was dissolved in Tween® 20 und ethanol (7/3 v/v) and diluted with the respective phosphate buffer. The solution was shaken with an IKA KS 260 basic (250 min^−1) at 25 °C for 48 h. Analysis was performed after 1, 3, 6, 24, and 48 h by comparing the area under the curve (A.U.C.), which was measured with HPLC-UV at 254 nm (n = 1).

[2] = Single-point metabolic stability in human liver microsomes; type: in vitro ADME
Method: The metabolic stability assay was performed in Human Liver Microsomes (HLM) using a single-point metabolic stability assay. Briefly, the compounds were incubated at 1 μM in 0.4 mg/mL human mixed-gender liver microsomes (Xenotech, Kansas City, KS, USA, pool of 50) for 30 min at 37 °C. Reactions were quenched by adding ice-cold acetonitrile containing internal standard. The samples were then centrifuged and analyzed by LC-MS/MS for the disappearance of the parent compound. Half-life, clearance, and hepatic […] ratios were determined using standard equations [47, 48]. Propranolol and midazolam were used as positive controls and treated similarly.

M. tuberculosis H37Rv [3] = test system: M. tuberculosis H37Rv; set-up: method as in Rehberg et al. [14]; conditions: ref Rehberg et al. [14], cited from earlier work
[4] = test system: Mtb XDR clinical isolates; conditions: ref Rehberg et al. [14]; cited from earlier work
physchem [5] = conditions: pH 7.4
physchem [6] = test: physchem
[7] = test system: human fetal lung fibroblast cell line MRC-5; conditions: ref Rehberg et al. [14]; cited from earlier work
monocyte cell line THP-1 = conditions: ref Rehberg et al. [14]; cited from earlier work
M. tuberculosis H37Rv [8] = test: Minimal inhibitory concentration (MIC) resazurin assay; type: cell-based, Mycobacterium tuberculosis
[9] = test system: human cell lines MRC-5, HEK-293, THP-1; type: cell-based
Method: For the determination of the cytotoxicity of the compounds, different human cell lines were used. The human fetal lung fibroblast cell line MRC-5 (American Type Culture Collection) was incubated in Eagle’s Minimum Essential Medium (EMEM) containing 1% (v/v) Na-pyruvate, whereas the human embryonic kidney cell line HEK-293 (CLS Cell Lines Service GmbH) was cultivated in EMEM supplemented with 2 mM L-glutamine, 1% (v/v) non-essential amino acids, and 1 mM sodium pyruvate. The human monocyte cell line THP-1 (Deutsche Sammlung von Mikroogranismen und Zellkulturen GmbH) was cultured in RPMI 1640 medium. All media were supplemented with 10% (v/v) heat-inactivated fetal bovine serum (FBS).
The cell densities were quantified using a hemocytometer and then adjusted to 10^6 cells/mL. Next, 100 µL per well were seeded in 96-well microtiter plates to yield an inoculation cell density of […] cells per well. Compounds were added employing two-fold serial dilutions resulting in final concentrations ranging from 100 to 0.78 µM. Cells were incubated for two days at 37 °C and 5% CO2 in a humidified atmosphere. […] Fluorescence was measured in a TECAN microplate reader (excitation of 540 nm, emission of 590 nm). The percentage of growth was calculated with respect to DMSO (100% growth) and Triton X-100 (0% growth) controls.

[10] = not given; remark: listed apart in the source
Mtb = test system: Mtb; set-up: method as in PMID 9818746; conditions: Mtb-infected mice; cited from earlier work

**Q.** For COc1cc(O)c2c(=O)c(OC)c(-c3cccc(Br)c3F)oc2c1OC [Compound 1f], which melting point is on record?
**A.** 217.4 °C

**Q.** Which melting point does the source give for COc1cc(O)c2c(=O)c(OC)c(-c3cccc(Br)c3O)oc2c1OC [Compound 1a] here?
**A.** 210.2 °C

**Q.** Which melting point does the source give for COc1cc(O)c2c(=O)c(OC)c(-c3cc(F)cc(Cl)c3O)oc2c1OC here?
**A.** 245 °C

**Q.** Which melting point does the source give for COc1cc(O)c2c(=O)c(OC)c(-c3cccc(I)c3O)oc2c1OC [Compound 1c] here?
**A.** 223.4 °C

**Q.** For COc1cc(O)c2c(=O)c(OC)c(-c3cccc(Cl)c3O)oc2c1OC [CF, chlorflavonin], which “drug content after 48 h” value ([1]; phosphate buffer pH 2.0, 48 h) is on record?
**A.** 99%

**Q.** And the “drug content after 48 h” value ([1]; phosphate buffer pH 7.4, 48 h)?
**A.** 99%

**Q.** And the “remaining after 30 min” value ([2]; 1 μM, human liver microsomes 0.4 mg/mL, 30 min, 37 °C)?
**A.** 48%

**Q.** And the melting point?
**A.** 213.7 °C

**Q.** What about the “effect of mono treatment” value (M. tuberculosis H37Rv [3]; mono treatment with CF) of the same compound?
**A.** bacteriostatic effect

**Q.** What about the MIC90 (M. tuberculosis H37Rv [3]; virulent Mtb H37Rv, in vitro growth inhibition) of the same compound?
**A.** 1.56 µM (≈ 0.591 µg/mL)

**Q.** And the combination effect (M. tuberculosis H37Rv [3]; with delamanid and isoniazid, including intracellular activity against infected human macrophages)?
**A.** synergistic efficacy

**Q.** What about the “in vitro growth inhibition” value [4] of the same compound?
**A.** strong in vitro growth inhibition

**Q.** What about the solubility at 24 h (physchem [5]) of the same compound?
**A.** < 5 µM

**Q.** And the pKa (physchem [6]; pKa1 (2′-OH))?
**A.** 6.8 ± 0.07

**Q.** And the pKa (physchem [6]; pKa2 (5-OH))?
**A.** 10.4

**Q.** And the cytotoxicity [7]?
**A.** no cytotoxicity

**Q.** And the cytotoxicity (monocyte cell line THP-1)?
**A.** no cytotoxicity

**Q.** For COc1cc(O)c2c(=O)c(OC)c(-c3cccc(C)c3O)oc2c1OC, which melting point is on record?
**A.** 213.3 °C

**Q.** With COc1cc(O)c2c(=O)c(OC)c(-c3cccc(Cl)c3Cl)oc2c1OC as the compound, how does the melting point read?
**A.** 184.8 °C

**Q.** Which results are given for COc1cc(O)c2c(=O)c(OC)c(-c3cccc(Br)c3O)oc2c1OC [BF, bromflavonin]?
**A.** Minimal Inhibitory Concentrations (MIC90) (M. tuberculosis H37Rv [8]): 0.78 μm; antimycobacterial activity (M. tuberculosis H37Rv [8]; Mtb H37Rv, in words): submicromolar; cytotoxicity toward human cells [9]: no cytotoxicity; drug content after 48 h ([1]; phosphate buffer pH 2.0, 48 h): 99%; drug content after 48 h ([1]; phosphate buffer pH 7.4, 48 h): 99%; CLint, app (predicted in vivo intrinsic clearance) [2]: 53.4; Water solubility at pH 7.4 [10]: <5 μM

**Q.** Which melting point does the source give for COc1cc(O)c2c(=O)c(OC)c(-c3cccc(Br)c3OC(F)F)oc2c1OC here?
**A.** 162.4 °C

**Q.** With COc1cc(O)c2c(=O)c(OC)c(-c3ccc(Cl)c(O)c3)oc2c1OC as the compound, how does the melting point read?
**A.** 48 °C

**Q.** With COC(=O)c1ccccc1S(=O)(=O)NC(=O)Nc1nc(C)cc(C)n1 [sulfometuron methyl] as the compound, how does the “proliferation of the pathogen in the host's lungs” value (Mtb) read?
**A.** significantly reduced proliferation

**Q.** For COc1cc(O)c2c(=O)c(OC)c(-c3cc(F)cc(Br)c3O)oc2c1OC [Compound 1i], which melting point is on record?
**A.** 251.4 °C

**Q.** With COc1cc(O)c2c(=O)c(OC)c(-c3cccc(Cl)c3)oc2c1OC as the compound, how does the melting point read?
**A.** 188.3 °C

**Q.** Which melting point does the source give for COc1cc(O)c2c(=O)c(OC)c(-c3ccc(Cl)cc3O)oc2c1OC here?
**A.** 240.7 °C

**Q.** Which melting point does the source give for COc1cc(O)c2c(=O)c(OC)c(-c3cccc(F)c3O)oc2c1OC [Compound 1b] here?
**A.** 208.6 °C

**Q.** With COc1cc(O)c2c(=O)c(OC)c(-c3cccc(C(F)(F)F)c3O)oc2c1OC [Compound 1d] as the compound, how does the melting point read?
**A.** 195.4 °C
